Assay results reported in patent US4160829A, “Antibacterial 1,2,4-oxadiazolylacetamido cephalosporins” (Gist-Brocades N.V., priority 1972, dated 1979).
In brackets after ≈: the same amount, converted by molar mass. Like-named read-outs stand apart in the source and are kept apart here.

Legend:
Bac.Subt.ATCC 6633 = experiment: agar serial dilution test; assay type: cell-based, Bacillus subtilis; details: agar serial dilution, 24 hours, 37° C.
Staph.aureus A 321 = experiment: agar serial dilution test; assay type: cell-based, Staphylococcus aureus; details: agar serial dilution, 24 hours, 37° C.
Staph.aureus A 2000 [1] = experiment: agar serial dilution test; assay type: cell-based, Staphylococcus aureus; details: agar serial dilution, 24 hours, 37° C.
Staph.aureus A 2001 [2] = experiment: agar serial dilution test; assay type: cell-based, Staphylococcus aureus; details: agar serial dilution, 24 hours, 37° C.
Strep. faec. L 80 = experiment: agar serial dilution test; assay type: cell-based, Streptococcus faecalis; details: agar serial dilution, 24 hours, 37° C.
Dipl.pneum. L 54 = experiment: agar serial dilution test; assay type: cell-based, Diplococcus pneumoniae; details: Streptococcus pneumoniae; agar serial dilution, 24 hours, 37° C.; read-out: minimal inhibitory concentration (MIC)
Past.multo. A 723 = experiment: agar serial dilution test; assay type: cell-based, Pasteurella multocida; details: agar serial dilution, 24 hours, 37° C.
Kleb.pneum. A 809 = experiment: agar serial dilution test; assay type: cell-based, Klebsiella pneumoniae; details: Klebsiella pneumoniae; agar serial dilution, 24 hours, 37° C.; read-out: minimal inhibitory concentration (MIC)
Salm.dubl. P 43 = experiment: agar serial dilution test; assay type: cell-based, Salmonella dublin; details: agar serial dilution, 24 hours, 37° C.
Esch.coli U 20 = experiment: agar serial dilution test; assay type: cell-based, Escherichia coli; details: Escherichia coli, U20; agar serial dilution, 24 hours, 37° C.; read-out: minimal inhibitory concentration (MIC)
Pseud.aerug. H 10 = experiment: agar serial dilution test; assay type: cell-based; details: agar serial dilution, 24 hours, 37° C.
Pseud.aerug. 2396 = experiment: agar serial dilution test; assay type: cell-based; details: agar serial dilution, 24 hours, 37° C.
[3] = tested on: Pseud.aerug. Wyeth A 1058; experiment: agar serial dilution test; assay type: cell-based; details: agar serial dilution, 24 hours, 37° C.
Prot.rettg. A 821 = experiment: agar serial dilution test; assay type: cell-based, Proteus rettgeri; details: agar serial dilution, 24 hours, 37° C.
Prot.mirab. H 3 = experiment: agar serial dilution test; assay type: cell-based, Proteus mirabilis; details: Proteus mirabilis
Prot.mirab. L 93 = experiment: agar serial dilution test; assay type: cell-based, Proteus mirabilis; details: Proteus mirabilis; agar serial dilution, 24 hours, 37° C.; read-out: minimal inhibitory concentration (MIC)
Prot.mirab. A 1200 [4] = experiment: agar serial dilution test; assay type: cell-based, Proteus mirabilis; details: agar serial dilution, 24 hours, 37° C.
Prot.morg. 2241 = experiment: agar serial dilution test; assay type: cell-based; details: agar serial dilution, 24 hours, 37° C.
Strep.haem A 1088 = experiment: agar serial dilution test; assay type: cell-based, Streptococcus haemolyticus; details: Streptococcus, A1088, 24 hours, 37° C., read-out: minimal inhibitory concentration (MIC)
Bruc. Suis A 2126 = experiment: agar serial dilution test; assay type: cell-based; details: Brucella suis, 24 h, read-out: minimal inhibitory concentration (MIC)
Salm.typh. R 172 = experiment: agar serial dilution test; assay type: cell-based; details: 24 h, read-out: minimal inhibitory concentration (MIC)
Actinob.equ. T 3 = experiment: agar serial dilution test; assay type: cell-based; details: 24 hours, 37° C., read-out: minimal inhibitory concentration (MIC)
Staph.aureus A 355 [5] = experiment: micro serial dilution test; assay type: cell-based, Staphylococcus aureus; details: micro serial dilution (in brackets), about 18 hours, 30° C. or 37° C., penicillinase-producing strain
Staph.aureus A 2000 [6] = experiment: micro serial dilution test; assay type: cell-based, Staphylococcus aureus; details: micro serial dilution (in brackets), about 18 hours, 30° C. or 37° C.
Staph.aureus A 2001 [7] = experiment: micro serial dilution test; assay type: cell-based, Staphylococcus aureus; details: micro serial dilution (in brackets), about 18 hours, 30° C. or 37° C.
Prot.mirab. A 1200 [8] = experiment: micro serial dilution test; assay type: cell-based; details: Proteus mirabilis; micro serial dilution (in brackets), about 18 hours, 30° C. or 37° C.; read-out: minimal inhibitory concentration (MIC)
Haem.Suis A 2096 = experiment: micro serial dilution test; assay type: cell-based; details: micro serial dilution (in brackets), about 18 hours, 30° C. or 37° C.; read-out: minimal inhibitory concentration (MIC)
Sarc. lutea ATCC 9341 = experiment: micro serial dilution test; assay type: cell-based; details: Micrococcus luteus, ATCC9341; micro serial dilution (in brackets), about 18 hours, 30° C. or 37° C.; read-out: minimal inhibitory concentration (MIC)
[9] = tested on: Klebsiella pneumoniae A 265; experiment: protection test; assay type: in vivo; details: i.p.
Proteus mirabilis A 1200 = experiment: protection test; assay type: in vivo; details: s.c.; for ED50: protection test
Proteus rettgeri A 821 = experiment: protection test; assay type: in vivo; details: s.c.
Staph.aureus A 355 [10] = experiment: agar serial dilution test; details: penicillinase-producing strain
Strep.haem. A 266 = experiment: agar serial dilution test; assay type: cell-based, Streptococcus haemolyticus; details: Streptococcus; agar serial dilution, 24 hours, 37° C.; read-out: minimal inhibitory concentration (MIC)
Bruc.melit. A 488 = experiment: microbe, parasite or virus in culture; assay type: cell-based; details: Brucella melitensis, 24 h, read-out: minimal inhibitory concentration (MIC)
Salm.typh. R 127 = experiment: agar serial dilution test; assay type: cell-based; details: 24 hours, 37° C.
Shig.equir. T 3 = experiment: agar serial dilution test; assay type: cell-based; details: 24 hours, 37° C.
Haem.infl. A 1030 = experiment: micro serial dilution test; assay type: cell-based; details: micro serial dilution (in brackets), about 18 hours, 30° C. or 37° C.
acute toxicity in mice = details: mouse, in vivo, ip; mice (Swiss), one intraperitoneal administration
Description: (a) For sodium 7-[(3-methyl-1,2,4-oxadiazol-5-yl)-acetamido]-cephalosporanate (as prepared in Example 10), the acute toxicity was determined in mice (Swiss) with one intraperitoneal administration. The LD50 appeared to be >6000 mg/kg (Cephalotin-LD50 >6000 mg/kg).

[11] = tested on: Staph. aureus pen.resistant; experiment: protection test; assay type: in vivo; details: Staphylococcus aureus, sc
Proteus rettgeri = experiment: protection test; assay type: in vivo; details: Providencia rettgeri, sc; protection test, s.c.; read-out: ED50
Klebsiella pneumoniae = experiment: protection test; assay type: in vivo; details: ip, protection test, i.p., read-out: ED50
Escherichia coli = experiment: protection test; assay type: in vivo; details: ip
in vivo = experiment: in vivo; set-up: species or system rabbits; details: rabbit, im, 50 mg/kg
Description: Blood levels of the above mentioned test compound and of cephalotin were determined after an intramuscular administration of 50 mg/kg of these compounds in an aqueous solution in rabbits. After half an hour for the compound of Example 10, a value of 38.3 μg/ml was found and for cephalotin 33.9 μg/ml. In urine, 35.9% of the administered compound of Example 10 was retrieved, while in the case of cephalotin 22.2% was retrieved within six hours.

[12] = read-out: minimal inhibitory concentration (MIC)

## Cn1nnnc1SCC1=C(C(=O)O)N2C(=O)[C@@H](NC(=O)Cc3nc(CC(=O)O)no3)[C@H]2SC1 [Compound F, disodium 7-[(3-carboxymethyl-1,2,4-oxadiazol-5-yl)-acetamido]-3[1-methyl-tetrazol-5-yl-mercaptomethyl] 3-cephem-4-carboxylate]
Bac.Subt.ATCC 6633; Bacillus subtilis, ATCC6633, 24 h, read-out: minimal inhibitory concentration (MIC)
  MIC: 1.5 µg/mL
Staph.aureus A 321; Staphylococcus aureus, A321, 24 h, read-out: minimal inhibitory concentration (MIC)
  MIC: 3 µg/mL
Staph.aureus A 2000 [1]; Staphylococcus aureus, A2000, 24 h, read-out: minimal inhibitory concentration (MIC)
  MIC: 6 µg/mL
Staph.aureus A 2001 [2]; Staphylococcus aureus, A2001, 24 h, read-out: minimal inhibitory concentration (MIC)
  MIC: 6 µg/mL
Strep. faec. L 80; Enterococcus faecalis, read-out: minimal inhibitory concentration (MIC)
  MIC: > 100 µg/mL
Dipl.pneum. L 54
  MIC: 1 µg/mL
Past.multo. A 723; Pasteurella multocida, read-out: minimal inhibitory concentration (MIC)
  MIC: 1 µg/mL
Kleb.pneum. A 809
  MIC: 0.5 µg/mL
Salm.dubl. P 43; Salmonella enterica, read-out: minimal inhibitory concentration (MIC)
  MIC: 0.5 µg/mL
Esch.coli U 20
  MIC: 0.75 µg/mL
Pseud.aerug. H 10; [12]
  MIC: 100 µg/mL
Pseud.aerug. 2396; [12]
  MIC: 100 µg/mL
[3]; [12]
  MIC: 100 µg/mL
Prot.rettg. A 821; Providencia rettgeri, 24 h, read-out: minimal inhibitory concentration (MIC)
  MIC: 0.25 µg/mL
Prot.mirab. H 3; agar serial dilution, 24 hours, 37° C., read-out: minimal inhibitory concentration (MIC)
  MIC: 1.5 µg/mL
Prot.mirab. L 93
  MIC: 1.5 µg/mL
Prot.mirab. A 1200 [4]; Proteus mirabilis, 24 h, read-out: minimal inhibitory concentration (MIC)
  MIC: 3 µg/mL
Prot.morg. 2241; 24 h, read-out: minimal inhibitory concentration (MIC)
  MIC: 25 µg/mL
Strep.haem A 1088
  MIC: 3 µg/mL
Bruc. Suis A 2126
  MIC: 1 µg/mL
Salm.typh. R 172
  MIC: 0.75 µg/mL
Actinob.equ. T 3
  MIC: 0.5 µg/mL
Staph.aureus A 355 [5]; Staphylococcus aureus, A355, read-out: minimal inhibitory concentration (MIC)
  MIC: 6 µg/mL
Staph.aureus A 2000 [6]; Staphylococcus aureus, A2000, 18 h, read-out: minimal inhibitory concentration (MIC)
  MIC: 4 µg/mL
Staph.aureus A 2001 [7]; Staphylococcus aureus, A2001, 18 h, read-out: minimal inhibitory concentration (MIC)
  MIC: 3.7 µg/mL
Prot.mirab. A 1200 [8]
  MIC: 1.2 µg/mL
Haem.Suis A 2096
  MIC: 0.23 µg/mL
Sarc. lutea ATCC 9341
  MIC: 3.7 µg/mL
[9]; Klebsiella pneumoniae, A265, ip, protection test
  ED50: 16 mg/kg
[9]; reference Cefalotin
  Potency ratio: 5,7
Proteus mirabilis A 1200; Proteus mirabilis, A1200, sc, read-out: ED50
  ED50: 2.2 mg/kg
Proteus mirabilis A 1200
  ED50: 1,35 mg/kg
Proteus mirabilis A 1200; reference Cefalotin
  Potency ratio: 6,9
Proteus mirabilis A 1200; reference Cefazolin
  Potency ratio: 6,5
Proteus rettgeri A 821; Providencia rettgeri, A821, sc, protection test
  ED50: 0.023 mg/kg
Proteus rettgeri A 821; reference Cefalotin
  Potency ratio: > 5
Staph.aureus A 355 [10]; Staphylococcus aureus, A355, 24 h, read-out: minimal inhibitory concentration (MIC), agar serial dilution, 24 hours, 37° C.
  MIC: 6 µg/mL

## CC(=O)OCC1=C(C(=O)O)N2C(=O)[C@@H](NC(=O)Cc3nc(C)no3)[C@H]2SC1 [Example 10, 7-[(3-methyl-1,2,4-oxadiazol-5-yl)-acetamido]-cephalosporanic acid]
Bac.Subt.ATCC 6633
  minimal inhibitory concentration (MIC): 0.25 µg/mL (≈ 0.631 µM)
Staph.aureus A 321
  minimal inhibitory concentration (MIC): 0.25 µg/mL (≈ 0.631 µM)
Staph.aureus A 2000 [1]
  minimal inhibitory concentration (MIC): 1 µg/mL (≈ 2.52 µM)
Staph.aureus A 2001 [2]
  minimal inhibitory concentration (MIC): 1 µg/mL (≈ 2.52 µM)
Strep.haem. A 266
  MIC: 0.03 µg/mL (≈ 0.0757 µM)
Strep. faec. L 80
  minimal inhibitory concentration (MIC): 50 µg/mL (≈ 126 µM)
Bruc.melit. A 488
  MIC: 6 µg/mL (≈ 15.1 µM)
Past.multo. A 723
  minimal inhibitory concentration (MIC): 1.5 µg/mL (≈ 3.78 µM)
Salm.dubl. P 43
  minimal inhibitory concentration (MIC): 3 µg/mL (≈ 7.57 µM)
Salm.typh. R 127
  minimal inhibitory concentration (MIC): 3 µg/mL (≈ 7.57 µM)
Esch.coli U 20
  MIC: 6 µg/mL (≈ 15.1 µM)
Shig.equir. T 3
  minimal inhibitory concentration (MIC): 3 µg/mL (≈ 7.57 µM)
Pseud.aerug. H 10
  minimal inhibitory concentration (MIC): > 100 µg/mL
Pseud.aerug. 2396
  minimal inhibitory concentration (MIC): > 100 µg/mL
[3]
  minimal inhibitory concentration (MIC): > 100 µg/mL
Prot.rettg. A 821
  minimal inhibitory concentration (MIC): 3 µg/mL (≈ 7.57 µM)
Prot.mirab. H 3; 24 h, read-out: minimal inhibitory concentration (MIC), agar serial dilution, 24 hours, 37° C.
  MIC: 12.5 µg/mL (≈ 31.5 µM)
Prot.mirab. L 93
  MIC: 1.5 µg/mL (≈ 3.78 µM)
Prot.mirab. A 1200 [4]
  minimal inhibitory concentration (MIC): 6 µg/mL (≈ 15.1 µM)
Prot.morg. 2241
  minimal inhibitory concentration (MIC): 50 µg/mL (≈ 126 µM)
Staph.aureus A 355 [5]
  minimal inhibitory concentration (MIC): 0.6 µg/mL (≈ 1.51 µM)
Staph.aureus A 2000 [6]
  minimal inhibitory concentration (MIC): 0.9 µg/mL (≈ 2.27 µM)
Staph.aureus A 2001 [7]
  minimal inhibitory concentration (MIC): 0.3 µg/mL (≈ 0.757 µM)
Haem.infl. A 1030
  minimal inhibitory concentration (MIC): 125 µg/mL (≈ 315 µM)
Acute toxicity in mice
  LD50: > 6000 mg/kg
[11]
  ED50: 31 mg/kg
Proteus rettgeri
  ED50: 1.25 mg/kg
Klebsiella pneumoniae
  ED50: 2.3 mg/kg
Escherichia coli
  ED50: 120 mg/kg
In vivo
  concentration at 0.5 h: 38300 ng/mL
Staph.aureus A 355 [10]; agar serial dilution, 24 hours, 37° C.
  minimal inhibitory concentration (MIC): 1 µg/mL (≈ 2.52 µM)

## O=C(O)Cc1nc(Cc2ccccc2)no1 [Example 12A, 3-benzyl-1,2,4-oxadiazol-5-yl-acetic acid]
Antiphlogistic activity
  antiphlogistic activity: antiphlogistic activity
